Source: the NIST ThermoML archive (doi:10.1021/acs.jced.8b00201)

Key:
[1] = 100 kPa, Liquid; for viscosity: Concentric cylinders viscometry; for mass density: Vibrating tube method
[2] = xn = mol fraction of the nth substance listed; details: 100 kPa, Liquid; for viscosity: Concentric cylinders viscometry; for mass density: Vibrating tube method

O=C1CCCCC1 [cyclohexanone]
[1]
Details	mass density [kg/m3]	viscosity [mPa·s]
293.15 K	948.8	2.3
298.15 K	943.1	2.09
303.15 K	938.2	1.91
308.15 K	933.5	1.75
313.15 K	928.8	1.6
318.15 K	924.4	1.46
323.15 K	920.7	1.34

O=C1CCCCC1 [cyclohexanone] + CCCCCCCCCO
[2], x1 = 1
Details	mass density [kg/m3]	viscosity [mPa·s]
293.15 K	948.8	2.3
298.15 K	943.1	2.09
303.15 K	938.2	1.91
308.15 K	933.5	1.75
313.15 K	928.8	1.6
318.15 K	924.4	1.46
323.15 K	920.7	1.34

O=C1CCCCC1 [cyclohexanone] + CCCCCCCO
[2], x1 = 1
Details	mass density [kg/m3]	viscosity [mPa·s]
293.15 K	948.8	2.3
298.15 K	943.1	2.09
303.15 K	938.2	1.91
308.15 K	933.5	1.75
313.15 K	928.8	1.6
318.15 K	924.4	1.46
323.15 K	920.7	1.34

CCCCCCCCCCO [decan-1-ol]
[1]
Details	mass density [kg/m3]	viscosity [mPa·s]
293.15 K	829.5	14.42
298.15 K	826.1	11.8
303.15 K	822.7	9.76
308.15 K	819.3	8.14
313.15 K	815.8	6.84
318.15 K	812.4	5.8
323.15 K	808.9	4.96

CCCCCCCCCCO [decan-1-ol] + O=C1CCCCC1
[2], x2 = 0
Details	mass density [kg/m3]	viscosity [mPa·s]
293.15 K	829.5	14.42
298.15 K	826.1	11.8
303.15 K	822.7	9.76
308.15 K	819.3	8.14
313.15 K	815.8	6.84
318.15 K	812.4	5.8
323.15 K	808.9	4.96

CCCCCCCO [heptan-1-ol]
[1]
Details	mass density [kg/m3]	viscosity [mPa·s]
293.15 K	822.2	7.03
298.15 K	818.7	5.92
303.15 K	815.2	5.03
308.15 K	811.6	4.3
313.15 K	808	3.71
318.15 K	804.4	3.21
323.15 K	800.7	2.79

CCCCCCO [hexan-1-ol]
[1]
Details	mass density [kg/m3]	viscosity [mPa·s]
293.15 K	818.7	5.37
298.15 K	815.1	4.58
303.15 K	811.5	3.94
308.15 K	807.9	3.4
313.15 K	804.2	2.95
318.15 K	800.6	2.58
323.15 K	796.8	2.26

CCCCCCO [hexan-1-ol] + O=C1CCCCC1
[2], x2 = 0
Details	mass density [kg/m3]	viscosity [mPa·s]
293.15 K	818.7	5.37
298.15 K	815.1	4.58
303.15 K	811.5	3.94
308.15 K	807.9	3.4
313.15 K	804.2	2.95
318.15 K	800.6	2.58
323.15 K	796.8	2.26

CCCCCCCCCO [nonan-1-ol]
[1]
Details	mass density [kg/m3]	viscosity [mPa·s]
293.15 K	827.5	11.41
298.15 K	824	9.43
303.15 K	820.5	7.86
308.15 K	817.1	6.61
313.15 K	813.6	5.6
318.15 K	810.1	4.78
323.15 K	806.5	4.1

CCCCCCCCO [octan-1-ol]
[1]
Details	mass density [kg/m3]	viscosity [mPa·s]
293.15 K	824.9	9.13
298.15 K	821.4	7.62
303.15 K	817.9	6.41
308.15 K	814.4	5.43
313.15 K	810.9	4.63
318.15 K	807.3	3.98
323.15 K	803.7	3.4

CCCCCCCCO [octan-1-ol] + O=C1CCCCC1
[2], x2 = 0
Details	mass density [kg/m3]	viscosity [mPa·s]
293.15 K	824.9	9.13
298.15 K	821.4	7.62
303.15 K	817.9	6.41
308.15 K	814.4	5.43
313.15 K	810.9	4.63
318.15 K	807.3	3.98
323.15 K	803.7	3.4

CCCCCO [pentan-1-ol]
[1]
Details	mass density [kg/m3]	viscosity [mPa·s]
293.15 K	814.5	4.03
298.15 K	810.8	3.49
303.15 K	807.1	3.04
308.15 K	803.3	2.65
313.15 K	799.6	2.32
318.15 K	795.8	2.05
323.15 K	792	1.81

CCCCCO [pentan-1-ol] + O=C1CCCCC1
[2], x2 = 0
Details	mass density [kg/m3]	viscosity [mPa·s]
293.15 K	814.5	4.03
298.15 K	810.8	3.49
303.15 K	807.1	3.04
308.15 K	803.3	2.65
313.15 K	799.6	2.32
318.15 K	795.8	2.05
323.15 K	792	1.81
